Like-named read-outs stand apart in the source and are kept apart here. Where only a bound is given, the exact number is not on record here.

Experiment [1] concerns the target hHexA/B. Particulars: read-out: Ki hHex A/B; cited from earlier work.
The target in the next experiment is T1, hOGA (Homo sapiens, UniProt O60502).
T1 construct: made in house
T1 sequence (O60502 1-916): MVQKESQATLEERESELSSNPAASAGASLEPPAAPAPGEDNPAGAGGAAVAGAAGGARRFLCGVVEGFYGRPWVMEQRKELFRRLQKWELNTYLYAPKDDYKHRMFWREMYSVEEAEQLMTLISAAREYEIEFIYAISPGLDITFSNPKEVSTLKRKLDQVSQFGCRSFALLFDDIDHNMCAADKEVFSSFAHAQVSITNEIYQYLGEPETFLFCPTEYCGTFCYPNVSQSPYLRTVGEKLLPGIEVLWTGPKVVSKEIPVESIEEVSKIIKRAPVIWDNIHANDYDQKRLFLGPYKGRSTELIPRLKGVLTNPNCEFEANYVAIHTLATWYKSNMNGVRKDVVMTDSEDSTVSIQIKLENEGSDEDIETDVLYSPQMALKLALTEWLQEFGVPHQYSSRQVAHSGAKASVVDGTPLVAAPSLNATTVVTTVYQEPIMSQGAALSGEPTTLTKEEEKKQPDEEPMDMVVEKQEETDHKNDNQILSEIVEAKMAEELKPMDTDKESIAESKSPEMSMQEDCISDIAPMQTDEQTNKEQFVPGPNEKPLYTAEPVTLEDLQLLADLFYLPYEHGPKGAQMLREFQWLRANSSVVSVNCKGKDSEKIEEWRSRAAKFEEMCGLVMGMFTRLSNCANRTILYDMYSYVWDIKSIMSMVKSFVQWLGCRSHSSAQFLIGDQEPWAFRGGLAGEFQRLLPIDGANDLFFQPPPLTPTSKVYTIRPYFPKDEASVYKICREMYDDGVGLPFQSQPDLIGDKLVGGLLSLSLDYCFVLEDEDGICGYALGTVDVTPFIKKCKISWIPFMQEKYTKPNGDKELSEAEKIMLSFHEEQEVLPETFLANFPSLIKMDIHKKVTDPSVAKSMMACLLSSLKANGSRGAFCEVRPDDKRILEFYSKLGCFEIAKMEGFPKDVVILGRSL
The experiment is described as follows: hOGA steady-state kinetics, fluorogenic assay, competitive inhibition fit. The experiment is classed as biochemical.

The target in experiment [2] is T2, endogenous hOGA (Homo sapiens, UniProt O60502).
T2 construct: activity on endogenous hOGA in a cell-based assay with HEK293 cells; endogenous in cells; host or cells: HEK293
T2 sequence (O60502 1-916): T1 sequence (O60502 1-916)
The experiment is described as follows: Cellular O-GlcNAcylation western blot (CTD110.6 antibody), densitometry. The experiment is classed as cell-based. Particulars: HEK293 cells, 6 hr; for EC50: densitometry, read-out: EC50 increase of cellular O-GlcNAcylation (western blot). The method, then: (§1) The novel GlcNAcstatin derivatives were investigated for their activity on endogenous hOGA in a cell-based assay with HEK293 cells. […] Furthermore, we determined the EC50 of GlcNAcstatins G and H by O-GlcNAc microscopy assay (Figure 3B; see Figure S1 available online). Elevated total O-GlcNAc levels in HEK293 cells were quantified and normalized over a reference DAPI signal.
For the O-GlcNAc western blots, HEK293 cells were cultured and treated with GlcNAcstatin derivatives as described previously ([Dorfmueller et al., 2009]). Cell lysates were separated by SDS PAGE, and O-GlcNAcylation was detected by western blotting with the anti-O-GlcNAc CTD110.6 antibody and quantified ([Dorfmueller et al., 2009]). To calculate the EC50 values of GlcNAcstatins C, F, and G, the data, background corrected with the untreated cells, were plotted against the inhibitor concentrations using the program GraphPad Prism (http://www.graphpad.com).
A general note: A western blot detects proteins with antibodies after separation by electrophoresis.

Experiment [3] has as its target T2, endogenous hOGA. Nature of the experiment: O-GlcNAc microscopy assay (RL2 immunostaining, IN Cell Analyzer). It counts as cell-based. Conditions: HEK293 cells, 6 hr, normalized over DAPI; read-out: EC50 total O-GlcNAc levels (microscopy assay). The method, then: as §1
For the microscopy studies, HEK293 cells were seeded in clear flat-bottom 96 well assay plates (Corning 3340) and grown for 12 hr at 37°C under 5% CO2. Cells were treated with concentrations of GlcNAcstatins G and H (1% final DMSO concentration) for 6 hr. Cells were washed twice with 50 μl PBS and fixed in 3.7% formaldehyde for 10 min at 37°C. After washing with TBST (0.1% Triton X-100) and permeabilized for further 10 min, the cells were blocked with 2% BSA and 0.1% normal donkey serum in TBST for 1 hr at RT, followed by washing twice with TBST. Cells were immunostained with the RL2 O-GlcNAc antibody (1/500) for 12 hr at 4°C and fluorescent secondary (1/500) for 1 hr at RT. Cells were further washed twice with TBS before incubation with DAPI (5 μg/ml) and CellMask (1/25000). Cells were washed twice with TBS and stored in 50 μl PBS. Images were taken and analyzed with the IN Cell Analyzer 1000 system (GE Healthcare).

In experiment [4] the target is T3, CpOGA-wild-type (Clostridium perfringens, UniProt Q0TR53). Nature of the experiment: biochemical. Also noted: species or system C. perfringens.
T3 sequence (Q0TR53 31-624 limits assumed): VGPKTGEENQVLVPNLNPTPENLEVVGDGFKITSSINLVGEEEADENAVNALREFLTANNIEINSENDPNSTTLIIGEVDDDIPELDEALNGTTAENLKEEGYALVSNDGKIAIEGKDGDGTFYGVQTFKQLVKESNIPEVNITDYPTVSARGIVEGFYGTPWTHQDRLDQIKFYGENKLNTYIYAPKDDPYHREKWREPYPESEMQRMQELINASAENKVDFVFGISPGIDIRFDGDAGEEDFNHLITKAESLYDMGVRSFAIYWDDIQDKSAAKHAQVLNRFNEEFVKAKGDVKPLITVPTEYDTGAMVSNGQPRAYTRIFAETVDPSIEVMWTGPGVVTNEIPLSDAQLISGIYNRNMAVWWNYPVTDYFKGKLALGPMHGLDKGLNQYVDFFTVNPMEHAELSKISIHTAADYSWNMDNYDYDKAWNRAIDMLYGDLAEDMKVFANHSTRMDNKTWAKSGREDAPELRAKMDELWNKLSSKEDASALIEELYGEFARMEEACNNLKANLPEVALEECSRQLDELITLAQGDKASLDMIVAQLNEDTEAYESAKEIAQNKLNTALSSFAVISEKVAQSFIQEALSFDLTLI
For experiment [5], the system named is hHexA/B. The experiment is described as follows: hHexA/B inhibition, fluorogenic 4MU-NAG substrate. It counts as biochemical, human. Conditions: for Ki: read-out: Ki hHex A/B.
Experiment [6] has as its target T3, CpOGA-wild-type. Conditions: cited from earlier work.

Turning to Thiamet-G, on hHexA/B [1], the Ki was 750 µM.
For the compound `C=CC=CC(=O)NC1c2nc(CCc3ccccc3)cn2C(CO)C(O)C1O` (stereo not drawn) [GlcNAcstatin G], the Ki at hOGA (physiological pH 7.3) was 0.0041 ± 0.0007 µM; at CpOGA-wild-type [4], 7.8 ± 0.7 pM; at hHexA/B [5] it was > 3700 µM. For the same compound, the EC50 (as a rule, the concentration giving half of the maximal effect) on endogenous hOGA [2] is 0.02 µM; at endogenous hOGA [3], 0.003 µM. On endogenous hOGA [2] (western blot), the “concentration in culture media inducing maximum levels of O-GlcNAcylation” value is on record as 100 nM. The IC50 (in general, the point on the concentration scale where inhibition reaches its midpoint) in the experiment on hHexA/B [5] was ~7000 µM.
Take `CCCCC(=O)N[C@H]1c2nc(CCc3ccccc3)cn2[C@H](CO)[C@@H](O)[C@@H]1O` [GlcNAcstatin H]: the Ki at hOGA (physiological pH 7.3) came out at 0.0026 ± 0.0003 µM; at hHexA/B [5] (Cheng-Prusoff, approximate values obtained after including an artificial 100% inhibition point (footnote d)), 100 ± 30 µM. On hOGA (ratio of Ki hHexA/B to Ki hOGA), the “Selectivity (hHexA/B/hOGA)” value is recorded as 35,000. For the same compound, the EC50 on endogenous hOGA [3] came out at 0.042 µM.
With `CC(=O)N[C@H]1/C(=N/OC(=O)Nc2ccccc2)O[C@H](CO)[C@@H](O)[C@@H]1O` [PUGNAc, reference compound], the Ki on CpOGA-wild-type [4] was 5400 ± 400 pM; at hHexA/B [1], 0.036 µM.
As for `O=C(CCS)N[C@H]1c2nc(CCc3ccccc3)cn2[C@H](CO)[C@@H](O)[C@@H]1O` [GlcNAcstatin F], the Ki at hOGA (physiological pH 7.3) is 0.0112 ± 0.0014 µM; at CpOGA-wild-type [4], 3.2 ± 0.2 pM; at hHexA/B [5], 11 ± 0.6 µM. Moreover, the EC50 on endogenous hOGA [2] turned out to be 0.29 µM.
Regarding `CC(C)C(=O)N[C@H]1c2nc(CCc3ccccc3)cn2[C@H](CO)[C@@H](O)[C@@H]1O` [GlcNAcstatin C], the “pH optimum of hOGA inhibition” value on hOGA (McIlvaine buffer, pH range 4.9–8.1, 1/Ki versus pH) was determined as 6.6. In addition, the Ki at hOGA (pH 6.6 (maximum potency)) was 0.0029 µM; on hOGA (physiological pH 7.3), 0.0032 ± 0.0009 µM; at CpOGA-wild-type [6], 4.6 ± 0.2 pM; on hHexA/B [5], 0.6 ± 0.1 µM. The EC50 on endogenous hOGA [2] was determined as 0.02 µM.

Values taken from paper PMC3032886, “Cell-Penetrant, Nanomolar O-GlcNAcase Inhibitors Selective against Lysosomal Hexosaminidases” (Chemistry & Biology, 2010).
